Measured values published in patent US7968097B2, “Identification of Hla-A2-presented T-cell epitopes derived from the oncofoetal antigen-immature laminin receptor protein and uses thereof” (Immatics Biotechnologies GmbH, priority 2005, dated 2011).
Several values for one entry are separate records, joined by “and”; a condition that tells them apart may be missing. Identical values can stand only once. Entries after “also recorded” stand apart in the source; their conditions may differ.

How the values were obtained:
[1] = system: CD8+ lymphocytes from peripheral blood of HLA-A2+ donors; assay: Tetramer analysis of microsphere driven expansion of peptide-specific CD8+ lymphocytes; assay type: cell-based, human; details: for Evaluable donors with clearly positive T-cell responses: of 5 evaluable HLA-A2+ donors, microspheres with anti-CD28 plus high density A*0201/peptide; for Evaluable stimulations with clearly positive T-cell responses: of 53 (RPS-001) or 54 (RPS-002) evaluable stimulations among all evaluable donors
From the text: 1×10^6 CD8+ enriched PBMCs per well of the healthy HLA-A2+ donor HBC-065 were stimulated weekly in one well with microspheres coupled to anti-CD28 plus high density tumor antigen A*0201/RPS-001 (upper panel) or high density tumor antigen A*0201/RPS-002 (lower panel) as shown before [Walter, S, et al. Cutting Edge: Predetermined avidity of human CD8 T cells expanded on calibrated MHC/anti-CD28-coated microspheres. J. Immunol. 171(10):4974-8, 2003] with minor modifications. After three stimulations in vitro, cells of both wells were stained with antibody CD8 FITC plus tetramer A*0201/RPS-001 APC and A*0201/RPS-002 PE. Cells are gated on the lymphocyte population (left and middle panel) or on the CD8+ lymphocyte population (right panel). Numbers represent percentage of tetramer^+ within CD8+ lymphocytes. RPS-001=LLAARAIVAI (SEQ ID-No. 1); RPS-002=ALCNTDSPL (SEQ ID-No. 2)
Table 6: Summary of tetramer analysis of microsphere driven expansions of A2/RPS-001 and A2/RPS-002 specific CD8^+ lymphocytes from peripheral blood. 1×10^6 CD8^+ enriched PBMCs per well were stimulated as in FIG. 12 with microspheres coupled to anti-CD28 plus high density tumor antigen A*0201/RPS-001 or high density tumor antigen A*0201/RPS-002. Indicated are number of evaluable HLA-A2^+ donors, number of evaluable donors with at least one clearly positive response, number of evaluable stimulations among all evaluable donors and number of evaluable stimulations with clearly positive responses. RPS001=LLAARAIVAI (SEQ ID-NO: 1); RPS-002=ALCNTDSPL (SEQ ID-NO: 2)

[2] = system: peptide-pulsed 51Cr-labelled T2 cells; assay: Cold target inhibition assay; assay type: cell-based, human
From the text: (§1) CTL derived from healthy HLA-A*0201^+ individuals were generated using a protocol described elsewhere (Zeis M, Siegel S, Schmitz M et al. Induction of cytotoxic T lymphocytes against hematologic neoplasms by survivin RNA-transfected dendritic cells. J Immunol. 2003; 170, 5391-5397.). For the induction of autologous OFA/ILR, peptide-specific CTL obtained from patients with AML and CLL, CD8^+ T cells were separated from PBMC using immunomagnetic beads (MACS®, Miltenyi, Bergisch-Gladbach, Germany), cultured with autologous OFA/iLR peptide-pulsed fully matured DC and restimulated with autologous peptide-pulsed PBMC in the presence of IL-2 (1 ng/ml, CellConcepts, Weisskirch, Germany). After at least four weekly restimulations, CTL reactivity was determined in a conventional 4 h ^51Chromium release assay. Cold target inhibition assays and antibody blocking experiments were performed as previously described (Zeis M, Siegel S, Schmitz M et al. Induction of cytotoxic T lymphocytes against hematologic neoplasms by survivin RNA-transfected dendritic cells. J Immunol. 2003; 170, 5391-5397.).
A cold target inhibition assay was performed. To examine whether ILR1-specific T cells lyse ILR1 peptide-pulsed T2 cells specifically and in the context of HLA-A*02, cold target inhibition assays were performed as follows: ^51Cr-labelled T2 cells were loaded with peptide in a concentration of 10 microgram peptide/10^6 T2 cells/ml. A total of 2×10^5 unlabelled, T2 cells, which had equally been loaded with the same or a control peptide, were then added in a volume of 50 microliter AIMV to 10^4 peptide-pulsed, ^51Cr-labelled T2 cells. Effector T cells specific for ILR1 were added and a ^51Cr-release assay was performed as described above.
A cold target inhibition assay was performed as described under “T2+ILR1” above.

peptide-pulsed T2 cells = assay: Lysis of peptide-pulsed T2 target cells by peptide-specific CTL (peptide titration); assay type: cell-based, human; details: for affinity of peptide-specific CTL to the peptide/MHC complex: peptide titration curves
[3] = system: CD8+ T cells of HLA-A*0201+ individuals; assay: Generation of peptide-specific CTL lines with peptide-pulsed matured DC; assay type: cell-based, human; details: for generation of CTL lines from healthy HLA-A*0201+ donors: fully matured DC pulsed with the peptide; for generation of autologous peptide-specific CTL lines from patients: one patient with CLL and another with AML, tested against autologous and allogeneic HLA-A2-matched target cells
From the text: The identification of T-helper cell epitopes of tumor associated antigens remains an important task in anti-tumor immunotherapy. To identify T cell-binding epitopes deduced from the OFA-iLR protein, 14 peptides were synthesized (see below) that were predicted by the computer programs PAProC (http://www.uni-tuebingen.de/uni/kxi/) and SYFPEITHY (http://www.syfpeithi.de) to bind to the HLA-A*0201 molecule.
as §1

[4] = system: PBMC of HLA-A*02 positive CLL patients; assay: IFN-γ ELISPOT, CLL patients; details: for samples with significant (>20) CTL responses against peptide: CLL patient samples, IFN-γ ELISPOT; for # of positively stained spots (IFN-γ ELISPOT): CLL patients, HLA-A*02 positive, one value per patient (table line), T cells cultured seven days with IL-2
Description: (§2) To determine the frequency of OFA/iLR peptide-specific T cells in patients, ELISPOT-assays were performed using the Interferon-γ-ELISPOT-Kit (Becton Dickinson, Heidelberg, Germany) according to manufacturer's instructions.
(§3) Prior to analysis, T cells from patients and healthy donors had been kept in culture for seven days in the presence of Interleukin-2 (IL microgram/10^6 PBMC/milliliter).

[5] = system: PBMC of HLA-A*02 positive myeloma patients; assay: IFN-γ ELISPOT, myeloma patients; details: for # of positively stained spots (IFN-γ ELISPOT): Myeloma patients, HLA-A*02 positive, one value per patient (table line), T cells cultured seven days with IL-2; for samples with significant (>20) CTL responses against peptide: myeloma patient samples, IFN-γ ELISPOT
Description: as §2, §3

[6] = system: T cells of HLA-A*0201+ patients with hematological malignancies; assay: IFN-γ ELISPOT, pooled HLA-A*0201+ AML, CLL and multiple myeloma patients; assay type: cell-based, human; details: 50 HLA-A*0201+ patients with hematological malignancies
Description: To determine the frequency of iLR1- and iLR2-specific T cells in HLAA*0201^+ AML, CLL and multiple myeloma patients, ELISPOT IFNI’ secretion assay (Tables 3-5) were performed.

[7] = system: tumor cells from AML patients; assay: 51Chromium release assay, peptide-specific CTL on tumor cells from AML patients; assay type: cell-based, human; details: for recognition of AML cells from A*02-negative patients by peptide-specific T cells / recognition of AML cells from A*02-positive patients by peptide-specific T cells: 1st and 2nd experiment; for A*02-positive AML patients in whom the peptide is a tumor-associated antigen: summary of two sets of experiments
From the text: as §1
T cells specific for HLA-A*02-restricted ILR1 were tested on tumor cells from AML patients (4 patients; samples AML-01, -02, -03, -06) (FIG. 4A). Cells from A*02-positive patients (3/4) were recognized with maximum lysis at an E:T ratio of 40:1 ranging between 25,9% and 39,8%.
T cells specific for HLA-A*02-restricted ILR1 were tested on tumor cells from AML patients for a second time to confirm the results obtained in the 1st experiment (9 patients; samples AML-01, -02, -04, -05, -06, -07, -09, -10, -12).
T cells specific for HLA-A*02-restricted ILR2 were tested on tumor cells from AML patients (8 patients; samples AML-01, -02, -04, -05, -06, -07, -10, -12). […] The experiment was conducted a 2nd time with samples from patients […]. In this 2nd experiment, T cells specific for HLA-A*02-restricted ILR2 were tested again on tumor cells from AML patients (4 patients; samples AML-01, -02, -03, -06).

[8] = hot target ILR1-peptide-pulsed T2, effectors ILR1-specific CTL, 10 microgram peptide/10^6 T2 cells/ml
[9] = hot target ILR2-peptide-pulsed T2, effectors ILR2-specific CTL

Which results are given for “LLAARAIVAI (listed as Homo sapiens) [ILR1]”?
Evaluable donors with clearly positive T-cell responses [1]: 5; Evaluable stimulations with clearly positive T-cell responses [1]: 29; competition of cold targets loaded with the peptide for lysis [2, 8]: compete with the primary target cells; competition of cold targets loaded with the peptide for lysis [2, 9]: neither peptides irrelevant for ILR2-specific CTL (Survivin and ILR1), nor unloaded T2 cells, which display empty HLA-A*02 molecules on their cell surfaces, compete for lysis; recognition/lysis of T2 cells pulsed with the peptide (peptide-pulsed T2 cells; effectors: T cells specific for ILR1): lysed in a dose-dependent fashion; affinity of peptide-specific CTL to the peptide/MHC complex (peptide-pulsed T2 cells): high affinity; generation of CTL lines from healthy HLA-A*0201+ donors [3]: CTL lines could be generated; generation of autologous peptide-specific CTL lines from patients [3]: could be generated eliciting efficient cytotoxic activity; median numbers of positively stained CTL compared to responses to Influenza Matrix recall-antigen [4]: 76%; samples with significant (>20) CTL responses against peptide [4]: 60%; # of positively stained spots (IFN-γ ELISPOT) [4]: 4 per 105 PBMC and 56 per 105 PBMC (2×) and 77 per 105 PBMC and 88 per 105 PBMC and 122 per 105 PBMC and 45 per 105 PBMC and 35 per 105 PBMC and 0 per 105 PBMC (4×) and 1 per 105 PBMC and 2 per 105 PBMC and 3 per 105 PBMC and 68 per 105 PBMC and 100 per 105 PBMC and 83 per 105 PBMC and 121 per 105 PBMC and 93 per 105 PBMC; # of positively stained spots (IFN-γ ELISPOT) [5]: 3 per 105 PBMC and 4 per 105 PBMC and 56 per 105 PBMC (2×) and 76 per 105 PBMC and 43 per 105 PBMC and 22 per 105 PBMC and 23 per 105 PBMC (2×) and 0 per 105 PBMC (2×) and 112 per 105 PBMC and 1 per 105 PBMC; samples with significant (>20) CTL responses against peptide [5]: 57%; patients with significant levels of peptide-specific T cells [6]: 50%; recognition of AML cells from A*02-negative patients by peptide-specific T cells [7]: not recognized (4/4); recognition of AML cells from A*02-positive patients by peptide-specific T cells [7]: recognized in all cases; A*02-positive AML patients in whom the peptide is a tumor-associated antigen [7]: 100%

What does the source list for “ALCNTDSPL (listed as Homo sapiens) [ILR2]”?
Evaluable donors with clearly positive T-cell responses [1]: 1; Evaluable stimulations with clearly positive T-cell responses [1]: 1; competition of cold targets loaded with the peptide for lysis [2, 8]: neither peptides irrelevant for ILR1-specific CTL (Survivin and ILR2), nor unloaded T2 cells, which display empty HLA-A*02 molecules on their cell surfaces, compete for lysis; competition of cold targets loaded with the peptide for lysis [2, 9]: compete with the primary target cells; recognition/lysis of T2 cells pulsed with the peptide (peptide-pulsed T2 cells; effectors: T cells specific for ILR2): lysed in a dose-dependent fashion; affinity of peptide-specific CTL to the peptide/MHC complex (peptide-pulsed T2 cells): high affinity; generation of CTL lines from healthy HLA-A*0201+ donors [3]: CTL lines could be generated; generation of autologous peptide-specific CTL lines from patients [3]: could be generated eliciting efficient cytotoxic activity; median numbers of positively stained CTL compared to responses to Influenza Matrix recall-antigen [4]: 55%; samples with significant (>20) CTL responses against peptide [4]: 56%; # of positively stained spots (IFN-γ ELISPOT) [4]: 4 per 105 PBMC and 45 per 105 PBMC and 65 per 105 PBMC and 128 per 105 PBMC and 67 per 105 PBMC and 23 per 105 PBMC and 27 per 105 PBMC and 78 per 105 PBMC and 56 per 105 PBMC and 0 per 105 PBMC (5×) and 2 per 105 PBMC and 57 per 105 PBMC; # of positively stained spots (IFN-γ ELISPOT) [5]: 0 per 105 PBMC (4×) and 1 per 105 PBMC (2×) and 3 per 105 PBMC (2×) and 34 per 105 PBMC (3×) and 27 per 105 PBMC and 23 per 105 PBMC and 112 per 105 PBMC; samples with significant (>20) CTL responses against peptide [5]: 43%; patients with significant levels of peptide-specific T cells [6]: 40%; recognition of AML cells from A*02-negative patients by peptide-specific T cells [7]: not recognized (4/4); also recorded: not recognized (0/1); recognition of AML cells from A*02-positive patients by peptide-specific T cells [7]: recognized in all cases (4/4); A*02-positive AML patients in whom the peptide is a tumor-associated antigen [7]: 100%
